One experiment has as its system I-A^d. Particulars: cited from earlier work. From the text: Table 1 Alternate registers within OVA 323–339. | column: Dissociation rate constants ^a / (k d, s^−1) || Peptide-MHC complex stability correlates broadly with immunogenicity, [21], as stable epitopes are more prevalent on the cell surface, and subsequently more likely to be recognized by responding T cells. Stability is commonly approximated as the dissociation rate of fluorescently labeled peptide from soluble MHC, although this approach can be complicated by highly overlapping registers. […] Supporting the thermodynamic stability of register one, a complex between the 323–339 peptide and I-A^d was cr ... || The HEL epitope consisting of residues 11 through 25 (HEL11-25) has been characterized as a weak MHC binder when presented by I-A^d, with a short half-life of approximately six hours that presumably results from a poorly accommodated arginine side chain in the P1 pocket. We compared the activities of wild type HEL11-25 to a variant in which the native P-4 to P-2 sequence was replaced with OVA-specific residues (QAV13-25) and a control in which these three residues were adjusted to GGS (GGS13-25). Since these changes lengthen the HEL11-25 peptide by a single amino acid, a control in whic ...

Experiment [1] deals with HEL11–25 responsive T cell hybridoma. Particulars: synthetic HEL peptide; A20 + HEL11-25 hybridoma cells, 24 h; IL-2 ELISA; 3-parameter curve fits of aggregate data from at least two experiments. (In an ELISA, binding on a coated surface is turned into a signal by an enzyme label.)
Description: We compared the activities of wild type HEL11-25 to a variant in which the native P-4 to P-2 sequence was replaced with OVA-specific residues (QAV13-25) and a control in which these three residues were adjusted to GGS (GGS13-25). Since these changes lengthen the HEL11-25 peptide by a single amino acid, a control in which the HEL11-25 peptide was appended with an N-terminal glycine in position P-3 (G11-25) was also analyzed.
Each well of a 96-well plate was seeded with 15,000 A20 cells, 15,000 T cell hydridoma cells and peptide, malE chimera protein or control peptide/protein per well in DMEM media without L-glutamine, except where noted. After a 24-hour incubation at 37°C, 5% CO2, supernatant was transferred to a new plate and stored at −80°C prior to IL-2 quantification assays. All peptide/protein doses were performed in triplicate wells and all experiments replicated at least twice.
For malE chimeras and control protein experiments, the relevant protein was thawed, concentrated using 30K molecular weight cut-off centrifugal filter units (Millipore UFC903024) and filter-sterilized. Proteins were then quantified via absorbance at 280 nm using a predicted extinction coefficient and molecular weight, diluted to equal concentrations, the concentration confirmed and serially diluted in 96-well plates. […] Proteins were pre-incubated for four hours with antigen presenting cells (A20 or 3A5) cells prior to a 24-hour incubation with T cell hybridomas. The IL-2 concentration in the supernatant was quantified using a matched pair ELISA quantified with an IL-2 standard as described (BD #555148). All experiments were performed at least twice, and all wells were measured in triplicate. Data was analyzed with Graphpad Prism 5 (La Jolla, CA).
Experiment [2] has as its system DO11.10 T cell hybridoma. Description: DO11.10 hybridoma IL-2 secretion with A20 antigen presenting cells and exogenous OVA peptide variants. Particulars: synthetic peptide; 15,000 A20 + 15,000 DO11.10 cells per well, 24 h, 37°C, DMEM without L-glutamine; IL-2 by matched pair ELISA; 3-parameter curve fits of aggregate data from at least two experiments. It counts as cell-based, murine. As for the experimental part: Two previous reports described anchor substitutions to stabilize register four. […] To assess the relative success of these attempts, we synthesized both variants, along with an N-terminally truncated version of the Robertson peptide (328–339 EIVS; Table 2) to remove the effects of flanking residues which we hypothesized would promote register masking. To assess peptide activity, DO11.10 hybridomas were incubated for 24 hours with I-A^d+ A20 lymphoma cells in the presence of peptide, and supernatant was subsequently assessed for the presence IL-2 by a matched pair ELISA as a measure of T cell activation. […]
(§1) Each well of a 96-well plate was seeded with 15,000 A20 cells, 15,000 T cell hydridoma cells and peptide, malE chimera protein or control peptide/protein per well in DMEM media without L-glutamine, except where noted. After a 24-hour incubation at 37°C, 5% CO2, supernatant was transferred to a new plate and stored at −80°C prior to IL-2 quantification assays. […]
For malE chimeras and control protein experiments, the relevant protein was thawed, concentrated using 30K molecular weight cut-off centrifugal filter units (Millipore UFC903024) and filter-sterilized. Proteins were then quantified via absorbance at 280 nm using a predicted extinction coefficient and molecular weight, diluted to equal concentrations, the concentration confirmed and serially diluted in 96-well plates. […]

Experiment [3] has as its system DO11.10 T cell hybridoma. In words: DO11.10 hybridoma IL-2 secretion with A20 cells and malE chimeras containing OVA epitope variants. It counts as cell-based, murine. Particulars: malE chimera protein pre-incubated 4 h with A20 cells, then 24 h with DO11.10, IL-2 ELISA, 3-parameter curve fits of aggregate data from at least two experiments.
Description: Peptide sequences were introduced into the exposed loop in place of residues 133–140 as first described by Martineau et al., with a glycine-serine extension (GSGSG) appended to the N-terminus of inserted epitopes to increase solubility (Figure 3A, Table 4). The activity of the N-terminally truncated peptides in MBP (325–337, 327–337, 328–337) indicates a maintained preference for wild type flanking residues as was previously observed with synthetic peptides (Figure 3A, Table 4). […] The increased activity of variants retaining the wild type P-3 and P-4 residues of register four during intracellular processing again supports their direct role in mediating the peptide and MHC interaction. […]
as §1
For malE chimeras and control protein experiments, the relevant protein was thawed, concentrated using 30K molecular weight cut-off centrifugal filter units (Millipore UFC903024) and filter-sterilized. […] The IL-2 concentration in the supernatant was quantified using a matched pair ELISA quantified with an IL-2 standard as described (BD #555148). […]

The mark [4] stands for this setting: apparent first order dissociation constant of presumed isolated register from purified I-A^d, single exponential fits to monophasic dissociation data.

“And” between values parts separate entries of the source, which are not always exact repeats. Equal values may be shown once. Read-outs that look alike come from different tables or passages of the source. Marks after values point to notes of the source that are not given here. Where no end group is shown, it is not given here.

As for “323–335 Q325A: literature OVA 323–335 peptide with alanine at position 325, used for register 1 dissociation”, in the experiment with I-A^d (setting [4]), the “Dissociation rate constants (k d, s^−1)” value was 2.3e-06 s⁻¹.
As to “325–336: literature OVA 325–336 peptide used for register 3 dissociation”, the “Dissociation rate constants (k d, s^−1)” value in the experiment with I-A^d (setting [4]) is 2.6e-06 s⁻¹.
“327–339 V327K: literature OVA 327–339 peptide with lysine at position 327, used for register 4 dissociation”: the “Dissociation rate constants (k d, s^−1)” value in the experiment on I-A^d (apparent first order dissociation constant from purified I-A^d, back-calculated from reported half-life of dissociation) was 0.0006 s⁻¹. Further, in the experiment with I-A^d (register four core truncated at P-2, P-2 valine altered to lysine), the “half-life of peptide dissociation from I-A^d” value is “around twenty”.
As for AMKRHGLDNYRGYSL [HEL11-25], the “half-life when presented by I-A^d” value in the experiment on I-A^d is recorded as “approximately six”. In addition, in experiment [1], the “Max response (ng/ml IL-2)” value came to 0.7 ng/ml IL-2.
On to GAMKRHGLDNYRGYSL [Peptide G11-25], for which, in experiment [1], the “Max response (ng/ml IL-2)” value stood at 0.7 ng/ml IL-2.
Still for that read-out and setting: the figure for GGSKRHGLDNYRGYSL [GGS13-25] is 0.5 ^* ng/ml IL-2.
For ISQAVHAAHAEINEAGR [323–339], the EC50 (usually the concentration that produces a half-maximal response) in the experiment with DO11.10 T cell hybridoma [2] turned out to be 1.6 µM.
With “MalE chimera 325–337: maltose binding protein with OVA 325–337 replacing malE residues 133–140”, in the experiment on DO11.10 T cell hybridoma [3], the “Max response (ng/ml IL-2)” value is given as 1.1 ^* ng/ml IL-2. Also, the EC50 with DO11.10 T cell hybridoma [3] (read-out: EC50 (µM peptide)) was determined as 18 µM.
With QAVKRHGLDNYRGYSL [QAV13-25], in experiment [1], the “Max response (ng/ml IL-2)” value was 1.5 ng/ml IL-2 and 1.5 ^* ng/ml IL-2.

Source of the values: PMC3479146, “Flanking Residues Are Central to DO11.10 T Cell Hybridoma Stimulation by Ovalbumin 323–339” (PLoS ONE, 2012).
